Assay results taken from PubChem BioAssay (NCI).
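Briefly, cells in 96-well plates were exposed to five compound concentrations for 48 h, and endpoints were estimated by linear interpolation. GI50 marks 50% less growth. TGI: concentration producing complete growth inhibition.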

Assays:
Experiment in all cases: NCI-60 cell line screen, 48 h
NCI-H23 lung = test system: NCI-H23 lung
NCI-H460 lung = test system: NCI-H460 lung
NCI-H522 lung = test system: NCI-H522 lung
NCI/ADR-RES ovarian = test system: NCI/ADR-RES ovarian
OVCAR-3 ovarian = test system: OVCAR-3 ovarian
OVCAR-4 ovarian = test system: OVCAR-4 ovarian
OVCAR-5 ovarian = test system: OVCAR-5 ovarian
OVCAR-8 ovarian = test system: OVCAR-8 ovarian
PC-3 prostate = test system: PC-3 prostate
RPMI-8226 leukemia = test system: RPMI-8226 leukemia
RXF 393 renal = test system: RXF 393 renal
SF-268 CNS = test system: SF-268 CNS
SF-295 CNS = test system: SF-295 CNS
SF-539 CNS = test system: SF-539 CNS
SK-MEL-2 melanoma = test system: SK-MEL-2 melanoma
SK-MEL-28 melanoma = test system: SK-MEL-28 melanoma
SK-MEL-5 melanoma = test system: SK-MEL-5 melanoma
SK-OV-3 ovarian = test system: SK-OV-3 ovarian
SN12C renal = test system: SN12C renal
SNB-19 CNS = test system: SNB-19 CNS
SNB-75 CNS = test system: SNB-75 CNS
SW-620 colon = test system: SW-620 colon
T-47D breast = test system: T-47D breast
TK-10 renal = test system: TK-10 renal
U251 CNS = test system: U251 CNS
UACC-257 melanoma = test system: UACC-257 melanoma
UACC-62 melanoma = test system: UACC-62 melanoma
UO-31 renal = test system: UO-31 renal

Compound `O=C(CC1(O)C(=O)N(Cc2ccccc2)c2ccc(F)cc21)c1ccc(C(=O)NCC2CCC3(CC2)OOC2(CCCCC2)OO3)cc1` (stereo not given) has a TGI (NCI-H23 lung) of 634 nM, a GI50 (NCI-H460 lung) of 210 nM and a TGI (NCI-H460 lung) of 487 nM. It also gave a GI50 (NCI-H522 lung) of 187 nM, a TGI (NCI-H522 lung) of 396 nM and a GI50 (NCI/ADR-RES ovarian) of 373 nM. For the same compound, the TGI (NCI/ADR-RES ovarian) was 1140 nM, the GI50 (OVCAR-3 ovarian) was 254 nM and the TGI (OVCAR-3 ovarian) was 634 nM. For the same compound, the GI50 (OVCAR-4 ovarian) was 1810 nM, the TGI (OVCAR-4 ovarian) was 4.62 µM and the GI50 (OVCAR-5 ovarian) was 1170 nM. It also gave a TGI (OVCAR-5 ovarian) of 4.89 µM, a GI50 (OVCAR-8 ovarian) of 267 nM and a TGI (OVCAR-8 ovarian) of 723 nM. It also gave a GI50 (PC-3 prostate) of 990 nM, a TGI (PC-3 prostate) of 3.21 µM and a GI50 (RPMI-8226 leukemia) of 365 nM. It also gave a TGI (RPMI-8226 leukemia) of 1920 nM, a GI50 (RXF 393 renal) of 317 nM and a TGI (RXF 393 renal) of 851 nM. It also gave a GI50 (SF-268 CNS) of 1310 nM, a TGI (SF-268 CNS) of 3.22 µM and a GI50 (SF-295 CNS) of 654 nM. The TGI (SF-295 CNS) was 1690 nM, the GI50 (SF-539 CNS) was 210 nM and the TGI (SF-539 CNS) was 541 nM. It also gave a GI50 (SK-MEL-2 melanoma) of 2000 nM, a TGI (SK-MEL-2 melanoma) of 4.13 µM and a GI50 (SK-MEL-28 melanoma) of 4.38 µM. It also gave a TGI (SK-MEL-28 melanoma) greater than 84.7 µM, a GI50 (SK-MEL-5 melanoma) of 1540 nM and a TGI (SK-MEL-5 melanoma) of 2960 nM. The GI50 (SK-OV-3 ovarian) was 2900 nM, the TGI (SK-OV-3 ovarian) was greater than 24 µM and the GI50 (SN12C renal) was 1730 nM. For the same compound, the TGI (SN12C renal) was 3.74 µM, the GI50 (SNB-19 CNS) was 3.44 µM and the TGI (SNB-19 CNS) was 43.5 µM. The GI50 (SNB-75 CNS) was 1480 nM, the TGI (SNB-75 CNS) was 3.19 µM and the GI50 (SW-620 colon) was 1840 nM. For the same compound, the TGI (SW-620 colon) was 4.3 µM, the GI50 (T-47D breast) was 843 nM and the TGI (T-47D breast) was 3.11 µM. The GI50 (TK-10 renal) was 191 nM, the TGI (TK-10 renal) was 413 nM and the GI50 (U251 CNS) was 251 nM. For the same compound, the TGI (U251 CNS) was 674 nM, the GI50 (UACC-257 melanoma) was 4.78 µM and the TGI (UACC-257 melanoma) was 31.7 µM. It also gave a GI50 (UACC-62 melanoma) of 2180 nM, a TGI (UACC-62 melanoma) of 5.61 µM and a GI50 (UO-31 renal) of 180 nM. The TGI (UO-31 renal) was 352 nM.
